Values of other authors in patent US8293711B2, “Use of natriuretic peptides for treating angioedema syndromes” (Pharis Biotech GmbH, priority 2007, dated 2012).

What was measured:
[1] = test system: HEK-293; conditions: human embryonic kidney cell line HEK-293; via activation of a cGMP-dependent pathway
[2] = test system: bradykinin-induced edema in the hamster cheek pouch; conditions: unspecific tyrosine kinase inhibitors
[3] = test system: acute renal failure models

Row | Molecule | tyrosine phosphorylation [1] | bradykinin-mediated effect (edema) [2] | diuretic and natriuretic effects [3]
1 | CC[C@H](C)[C@@H]1NC(=O)[C@H](CCCNC(=N)N)NC(=O)[C@H](CC(=O)O)NC(=O)[C@H](CCSC)NC(=O)[C@H](CCCNC(=N)N)NC(=O)CNC(=O)CNC(=O)[C@H](Cc2ccccc2)NC(=O)[C@@H](NC(=O)[C@H](CO)NC(=O)[C@H](CO)NC(=O)[C@H](CCCNC(=N)N)NC(=O)[C@H](CCCNC(=N)N)NC(=O)[C@H](CC(C)C)NC(=O)[C@@H](N)CO)CSSC[C@@H](C(=O)N[C@@H](CC(N)=O)C(=O)N[C@@H](CO)C(=O)N[C@@H](Cc2ccccc2)C(=O)N[C@@H](CCCNC(=N)N)C(=O)N[C@@H](Cc2ccc(O)cc2)C(=O)O)NC(=O)CNC(=O)[C@H](CC(C)C)NC(=O)CNC(=O)[C@H](CO)NC(=O)[C@H](CCC(N)=O)NC(=O)[C@H](C)NC(=O)CNC1=O [ANP, atrial natriuretic peptide] | able to counteract tyrosine phosphorylation |  | 
2 | O=c1c(-c2ccc(O)cc2)coc2cc(O)cc(O)c12 [genistein] |  | attenuated | 
3 | N#CC(C#N)=Cc1cc(O)c(O)c(O)c1 [tyrphostin 25] |  | attenuated | 
4 | urodilatin | able to counteract tyrosine phosphorylation |  | strong diuretic and natriuretic effects
